In patent publication US7671054B1, “Reverse-turn mimetics and method relating thereto” (Choongwae Pharma Corporation, priority 2001, dated 2010):
“Also recorded” adds a separate entry of the source.

Tests used:
Type in all cases: cell-based
[1] = test system: survivin promoter occupancy by CBP, β-catenin, Tcf4 and acetylated histone; experiment: ChIP assay on SW480 cells; conditions: 25 μM, 18 hours
caspase 3 = experiment: Caspase 3 activity in cultured tumor cells
cultured tumor cells = experiment: FACS analysis, cells in G0; conditions: 5 μM

**Q.** `O=C1[C@H](Cc2ccc(O)cc2)N2C(=O)CCN(C(=O)NCc3ccccc3)[C@H]2CN1Cc1cccc2ccccc12` [Compound D] was tested. Which “association of CBP, β-catenin, Tcf4 and acetylated histone with the survivin promoter (ChIP)” value [1] did it give?
**A.** decreases the association of all these proteins with the survivin promoter; also recorded: decreases the association of various proteins with the survivin promoter

**Q.** And the “caspase 3 activity, co-treatment” value (caspase 3; co-treatment of stausporine (0.5 μM) and Compound D)?
**A.** synergic stimuation of the caspase 3 activity

**Q.** What about the “caspase 3 activity” value (caspase 3; cultured tumor cells, 2.5 μM or 5.0 μM) of the same compound?
**A.** activates the caspase 3 activity

**Q.** And the “number of cells in G0 (FACS)” value (cultured tumor cells)?
**A.** increases the number of cells in G0
